Assay results published in patent US9290451B2 (Hoffmann-La Roche Inc., priority 2011, dated 2016).

Legend:
human CB1 receptors = human CB1 receptors (Homo sapiens (Human), UniProt P21554); experiment: cAMP assay, CHO cells expressing human CB1 receptors; format: cell-based; conditions: CHO cells expressing human CB1, cAMP; read-out: human CB1 EC50
In short: (§1)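 Seed CHO cells 17–24 h ahead; replace medium with Krebs Ringer bicarbonate containing 1 mM IBMX for 30 min at 30 °C; add compounds for 30 min at 30 °C; lyse, add TR-FRET cAMP reagents for 2 h at room temperature; read and convert to cAMP via standard curve; fit EC50.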

human CB2 receptors = human CB2 receptors (Homo sapiens (Human), UniProt P34972); experiment: cAMP assay, CHO cells expressing human CB2 receptors; format: cell-based; conditions: CHO cells expressing human CB2, cAMP; read-out: human CB2 EC50
In short: as §1

Sequence of human CB1 receptors (P21554 whole entry): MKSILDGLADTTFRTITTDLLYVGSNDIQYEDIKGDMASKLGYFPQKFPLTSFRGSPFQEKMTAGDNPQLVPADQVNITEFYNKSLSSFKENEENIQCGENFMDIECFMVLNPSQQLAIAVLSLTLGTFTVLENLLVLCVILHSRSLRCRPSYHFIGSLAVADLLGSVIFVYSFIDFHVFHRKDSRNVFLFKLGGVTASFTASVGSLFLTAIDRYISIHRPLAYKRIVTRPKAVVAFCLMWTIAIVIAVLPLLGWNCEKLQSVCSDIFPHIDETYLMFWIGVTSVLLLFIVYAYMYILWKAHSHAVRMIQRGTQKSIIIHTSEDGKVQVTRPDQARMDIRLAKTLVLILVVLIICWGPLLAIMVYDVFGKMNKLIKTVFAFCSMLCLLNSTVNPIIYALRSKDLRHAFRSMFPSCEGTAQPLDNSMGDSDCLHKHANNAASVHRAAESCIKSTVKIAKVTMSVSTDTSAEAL
Sequence of human CB2 receptors (P34972 whole entry): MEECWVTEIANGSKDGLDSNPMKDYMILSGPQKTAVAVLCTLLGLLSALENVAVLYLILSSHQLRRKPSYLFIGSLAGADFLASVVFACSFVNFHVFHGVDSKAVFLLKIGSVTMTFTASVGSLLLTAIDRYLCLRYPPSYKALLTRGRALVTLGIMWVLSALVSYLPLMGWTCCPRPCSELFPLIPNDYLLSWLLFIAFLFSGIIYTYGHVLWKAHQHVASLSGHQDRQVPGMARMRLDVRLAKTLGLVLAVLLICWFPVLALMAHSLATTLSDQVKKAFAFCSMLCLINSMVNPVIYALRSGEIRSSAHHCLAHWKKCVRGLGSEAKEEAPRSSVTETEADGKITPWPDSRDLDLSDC

For NC(=O)[C@H](NC(=O)c1ccc(N2CC(F)(F)C2)c(OCC2CC2)n1)C1CC1 [Example 377, 6-Cyclopropylmethoxy-5-(3,3-difluoro-azetidin-1-yl)-pyridine-2-carboxylic acid ((−)-carbamoyl-cyclopropyl-methyl)-amide], the EC50 (human CB1 receptors) was greater than 10000 nM and the EC50 (human CB2 receptors) was 178 nM.

CC1CC(NC(=O)c2cccc(-c3cccc(Cl)c3)n2)CCO1 (centres unmarked) [Example 26, 6-(3-Chloro-phenyl)-pyridine-2-carboxylic acid (2-methyl-tetrahydro-pyran-4-yl)-amide] was tested, and the EC50 (human CB1 receptors) was greater than 10000 nM and the EC50 (human CB2 receptors) was 691 nM.

O=C(N[C@@H](CC1CC1)C(=O)NN1CCC(O)C1)c1ccc(C2CC2)c(OCC2CC2)n1 (single isomer, unassigned; (-)) [Example 380] showed an EC50 (human CB1 receptors) greater than 10000 nM and an EC50 (human CB2 receptors) of 584 nM.

With CNC(=O)[C@@H](NC(=O)c1ccc(N2CC(F)(F)C2)c(OCC2CCCO2)n1)C(C)(C)C (stereo partly drawn) [Example 206, 5-(3,3-Difluoroazetidin-1-yl)-N-((S)-3,3-dimethyl-1-(methylamino)-1-oxobutan-2-yl)-6-((tetrahydrofuran-2-yl)methoxy)picolinamide] the EC50 (human CB1 receptors) was greater than 10000 nM and the EC50 (human CB2 receptors) was 25 nM.

For CNC(=O)[C@H](CC(C)(C)C)NC(=O)c1ccc(C2CC2)c(OCC2CC2)n1 [Example 182, (S)-5-Cyclopropyl-6-(cyclopropylmethoxy)-N-(4,4-dimethyl-1-(methylamino)-1-oxopentan-2-yl)picolinamide], the EC50 (human CB1 receptors) was greater than 10000 nM and the EC50 (human CB2 receptors) was 1.7 nM.

With O=C(NN1CCCCC1)c1cccc(C2CCCCC2)n1 [Example 24, 6-Cyclohexyl-pyridine-2-carboxylic acid piperidin-1-ylamide] the EC50 (human CB1 receptors) was greater than 10000 nM and the EC50 (human CB2 receptors) was 15.6 nM.

CCOC(=O)C(CC)(CC)NC(=O)c1ccc(N2CC(F)(F)C2)c(OCC2CC2)n1 [Example 266, 2-{[6-Cyclopropylmethoxy-5-(3,3-difluoro-azetidin-1-yl)-pyridine-2-carbonyl]-amino}-2-ethyl-butyric acid ethyl ester] was tested, and the EC50 (human CB1 receptors) was 1300 nM and the EC50 (human CB2 receptors) was 2 nM.

Cc1nc(C(NC(=O)c2ccc(N3CCC34COC4)c(OCC3CC3)n2)C2CC2)no1 (centres unmarked) [Example 236, 6-Cyclopropylmethoxy-5-(6-oxa-1-aza-spiro[3.3]hept-1-yl)-pyridine-2-carboxylic acid [cyclopropyl-(5-methyl-[1,2,4]oxadiazol-3-yl)-methyl]-amide] was tested, and the EC50 (human CB1 receptors) was greater than 10000 nM and the EC50 (human CB2 receptors) was 36.5 nM.

Cc1nc(C(C)(C)NC(=O)c2ccc(N3CCC(=O)C3)c(OCC3CC3)n2)no1 [Example 334, 6-Cyclopropylmethoxy-5-(3-oxo-pyrrolidin-1-yl)-pyridine-2-carboxylic acid [1-methyl-1-(5-methyl-[1,2,4]oxadiazol-3-yl)-ethyl]-amide] showed an EC50 (human CB1 receptors) greater than 10000 nM and an EC50 (human CB2 receptors) of 108 nM.

For Cc1nc([C@H](NC(=O)c2cccc(-c3ccc(F)c(Cl)c3)n2)C2CC2)no1 [Example 261, 6-(3-Chloro-4-fluoro-phenyl)-pyridine-2-carboxylic acid [(+)-cyclopropyl-(5-methyl-[1,2,4]oxadiazol-3-yl)-methyl]-amide], the EC50 (human CB1 receptors) was 260 nM and the EC50 (human CB2 receptors) was 10.1 nM.

In the case of NC(=O)[C@H](CC1CC1)NC(=O)c1ccc(N(CC(F)(F)F)CC(F)(F)F)c(OCC2CC2)n1 [Example 162, 5-[Bis-(2,2,2-trifluoro-ethyl)-amino]-6-cyclopropylmethoxy-pyridine-2-carboxylic acid ((S)-1-carbamoyl-2-cyclopropyl-ethyl)-amide], the EC50 (human CB1 receptors) is reported as 674 nM and the EC50 (human CB2 receptors) is reported as 54.4 nM.

With Cc1nc(C(C)(C)NC(=O)c2ccc(C3CC3)c(OCC3CCOCC3)n2)no1 [Example 202, 5-Cyclopropyl-N-(2-(5-methyl-1,2,4-oxadiazol-3-yl)propan-2-yl)-6-((tetrahydro-2H-pyran-4-yl)methoxy)picolinamide] the EC50 (human CB1 receptors) was 615 nM and the EC50 (human CB2 receptors) was 23.6 nM.

Work on Cc1nc(C2(NC(=O)c3ccc(C4CC4)c(OCC4CC4)n3)CCC2)no1 [Example 171, 5-Cyclopropyl-6-(cyclopropylmethoxy)-N-(1-(5-methyl-1,2,4-oxadiazol-3-yl)cyclobutyl)picolinamide] yielded an EC50 (human CB1 receptors) greater than 10000 nM and an EC50 (human CB2 receptors) of 46.8 nM.

Compound Cc1nc(C(C)(C)NC(=O)c2ccc3c(n2)CC(C)(C)CC3)no1 [Example 144, 7,7-dimethyl-N-(2-(5-methyl-1,2,4-oxadiazol-3-yl)propan-2-yl)-5,6,7,8-tetrahydroquinoline-2-carboxamide] has an EC50 (human CB1 receptors) of 739 nM and an EC50 (human CB2 receptors) of 22.8 nM.

With NC(=O)[C@@H](NC(=O)c1ccc(C2CC2)c(OCC2CC2)n1)c1ccccc1 [Example 172, (S)-N-(2-Amino-2-oxo-1-phenylethyl)-5-cyclopropyl-6-(cyclopropylmethoxy)picolinamide] the EC50 (human CB1 receptors) was greater than 10000 nM and the EC50 (human CB2 receptors) was 10.1 nM.

Work on CCC(CC)(NC(=O)c1ccc(C(F)(F)F)c(OCC2CC2)n1)C(=O)NC [Example 259, 6-Cyclopropylmethoxy-5-trifluoromethyl-pyridine-2-carboxylic acid (1-ethyl-1-methylcarbamoyl-propyl)-amide] yielded an EC50 (human CB1 receptors) greater than 10000 nM and an EC50 (human CB2 receptors) of 5.1 nM.

With Cc1nc(C(NC(=O)c2ccc(C(F)(F)F)c(OCC3CC3)n2)C2CC2)no1 (centres unmarked) [Example 229, 6-Cyclopropylmethoxy-5-trifluoromethyl-pyridine-2-carboxylic acid [cyclopropyl-(5-methyl-[1,2,4]oxadiazol-3-yl)-methyl]-amide] the EC50 (human CB1 receptors) was greater than 10000 nM and the EC50 (human CB2 receptors) was 52.4 nM.

CC(C)(O)[C@H](CC1CC1)NC(=O)c1ccc(C2CC2)c(OCC2CC2)n1 [Example 139, 5-Cyclopropyl-6-cyclopropylmethoxy-pyridine-2-carboxylic acid ((S)-1-cyclopropylmethyl-2-hydroxy-2-methyl-propyl)-amide] showed an EC50 (human CB1 receptors) greater than 10000 nM and an EC50 (human CB2 receptors) of 113 nM.

For CNC(=O)[C@H](CC(C)(C)C)NC(=O)c1ccc(C2CC2)c(OCC2CCCO2)n1 (stereo partly drawn) [Example 185, 5-Cyclopropyl-N-((S)-4,4-dimethyl-1-(methylamino)-1-oxopentan-2-yl)-6-((tetrahydrofuran-2-yl)methoxy)picolinamide], the EC50 (human CB1 receptors) was greater than 10000 nM and the EC50 (human CB2 receptors) was 7.5 nM.
